The NIST ThermoML archive (doi:10.1021/acs.jced.5b00326)
Numbers after ± are expanded uncertainties.

Experiment: mn = molality of the nth substance listed, in mol/kg
Conditions: Liquid; for speed of sound: 100 kPa, Frequency=3 MHz, Sing-around technique in a fixed-path interferometer; for mass density: 101 kPa, Vibrating tube method

O=P([O-])([O-])O.[Na+].[Na+] [disodium hydrogen phosphate] + O
speed of sound (288.15 K, m1 = 0.02076): 1467.8 ± 20 m/s | speed of sound (288.15 K, m1 = 0.04991): 1472.7 ± 20 m/s | speed of sound (288.15 K, m1 = 0.07047): 1476.2 ± 20 m/s | speed of sound (288.15 K, m1 = 0.1014): 1481.5 ± 20 m/s | speed of sound (288.15 K, m1 = 0.1983): 1497.9 ± 20 m/s | speed of sound (288.15 K, m1 = 0.2992): 1515.1 ± 20 m/s | speed of sound (288.15 K, m1 = 0.394): 1531.2 ± 20 m/s | speed of sound (288.15 K, m1 = 0.4957): 1548.5 ± 20 m/s | speed of sound (288.15 K, m1 = 0.5971): 1565.8 ± 20 m/s | speed of sound (288.15 K, m1 = 0.6947): 1582.4 ± 20 m/s | speed of sound (288.15 K, m1 = 0.7942): 1599.3 ± 20 m/s | speed of sound (288.15 K, m1 = 0.876): 1613.2 ± 20 m/s | speed of sound (288.15 K, m1 = 0.976): 1630.2 ± 20 m/s | mass density (288.15 K, m1 = 0.02076): 1001.71 ± 14 kg/m3 | mass density (288.15 K, m1 = 0.04991): 1005.35 ± 14 kg/m3 | mass density (288.15 K, m1 = 0.07047): 1007.92 ± 14 kg/m3 | mass density (288.15 K, m1 = 0.1014): 1011.78 ± 14 kg/m3 | mass density (288.15 K, m1 = 0.1983): 1023.89 ± 14 kg/m3 | mass density (288.15 K, m1 = 0.2992): 1036.51 ± 14 kg/m3 | mass density (288.15 K, m1 = 0.394): 1048.36 ± 14 kg/m3 | mass density (288.15 K, m1 = 0.4957): 1061.07 ± 14 kg/m3 | mass density (288.15 K, m1 = 0.5971): 1073.75 ± 14 kg/m3 | mass density (288.15 K, m1 = 0.6947): 1085.95 ± 14 kg/m3 | mass density (288.15 K, m1 = 0.7942): 1098.39 ± 14 kg/m3 | mass density (288.15 K, m1 = 0.876): 1108.62 ± 14 kg/m3 | mass density (288.15 K, m1 = 0.976): 1121.11 ± 14 kg/m3 | speed of sound (293.15 K, m1 = 0.02076): 1485.6 ± 20 m/s | speed of sound (293.15 K, m1 = 0.04991): 1490.4 ± 20 m/s | speed of sound (293.15 K, m1 = 0.07047): 1493.8 ± 20 m/s | speed of sound (293.15 K, m1 = 0.1014): 1498.9 ± 20 m/s | speed of sound (293.15 K, m1 = 0.1983): 1514.9 ± 20 m/s | speed of sound (293.15 K, m1 = 0.2992): 1531.5 ± 20 m/s | speed of sound (293.15 K, m1 = 0.394): 1547.2 ± 20 m/s | speed of sound (293.15 K, m1 = 0.4957): 1564 ± 20 m/s | speed of sound (293.15 K, m1 = 0.5971): 1580.7 ± 20 m/s | speed of sound (293.15 K, m1 = 0.6947): 1596.8 ± 20 m/s | speed of sound (293.15 K, m1 = 0.7942): 1613.3 ± 20 m/s | speed of sound (293.15 K, m1 = 0.876): 1626.8 ± 20 m/s | speed of sound (293.15 K, m1 = 0.976): 1643.3 ± 20 m/s | mass density (293.15 K, m1 = 0.02076): 1000.78 ± 14 kg/m3 | mass density (293.15 K, m1 = 0.04991): 1004.39 ± 14 kg/m3 | mass density (293.15 K, m1 = 0.07047): 1006.93 ± 14 kg/m3 | mass density (293.15 K, m1 = 0.1014): 1010.76 ± 14 kg/m3 | mass density (293.15 K, m1 = 0.1983): 1022.75 ± 14 kg/m3 | mass density (293.15 K, m1 = 0.2992): 1035.25 ± 14 kg/m3 | mass density (293.15 K, m1 = 0.394): 1046.99 ± 14 kg/m3 | mass density (293.15 K, m1 = 0.4957): 1059.58 ± 14 kg/m3 | mass density (293.15 K, m1 = 0.5971): 1072.14 ± 14 kg/m3 | mass density (293.15 K, m1 = 0.6947): 1084.21 ± 14 kg/m3 | mass density (293.15 K, m1 = 0.7942): 1096.54 ± 14 kg/m3 | mass density (293.15 K, m1 = 0.876): 1106.66 ± 14 kg/m3 | mass density (293.15 K, m1 = 0.976): 1119.04 ± 14 kg/m3 | speed of sound (298.15 K, m1 = 0.02076): 1500.3 ± 20 m/s | speed of sound (298.15 K, m1 = 0.04991): 1505 ± 20 m/s | speed of sound (298.15 K, m1 = 0.07047): 1508.3 ± 20 m/s | speed of sound (298.15 K, m1 = 0.1014): 1513.2 ± 20 m/s | speed of sound (298.15 K, m1 = 0.1983): 1528.8 ± 20 m/s | speed of sound (298.15 K, m1 = 0.2992): 1544.9 ± 20 m/s | speed of sound (298.15 K, m1 = 0.394): 1560.1 ± 20 m/s | speed of sound (298.15 K, m1 = 0.4957): 1576.4 ± 20 m/s | speed of sound (298.15 K, m1 = 0.5971): 1592.6 ± 20 m/s | speed of sound (298.15 K, m1 = 0.6947): 1608.2 ± 20 m/s | speed of sound (298.15 K, m1 = 0.7942): 1624.2 ± 20 m/s | speed of sound (298.15 K, m1 = 0.876): 1637.3 ± 20 m/s | speed of sound (298.15 K, m1 = 0.976): 1653.3 ± 20 m/s | mass density (298.15 K, m1 = 0.02076): 999.59 ± 14 kg/m3 | mass density (298.15 K, m1 = 0.04991): 1003.16 ± 14 kg/m3 | mass density (298.15 K, m1 = 0.07047): 1005.68 ± 14 kg/m3 | mass density (298.15 K, m1 = 0.1014): 1009.47 ± 14 kg/m3 | mass density (298.15 K, m1 = 0.1983): 1021.33 ± 14 kg/m3 | mass density (298.15 K, m1 = 0.2992): 1033.7 ± 14 kg/m3 | mass density (298.15 K, m1 = 0.394): 1045.31 ± 14 kg/m3 | mass density (298.15 K, m1 = 0.4957): 1057.77 ± 14 kg/m3 | mass density (298.15 K, m1 = 0.5971): 1070.2 ± 14 kg/m3 | mass density (298.15 K, m1 = 0.6947): 1082.15 ± 14 kg/m3 | mass density (298.15 K, m1 = 0.7942): 1094.34 ± 14 kg/m3 | mass density (298.15 K, m1 = 0.876): 1104.36 ± 14 kg/m3 | mass density (298.15 K, m1 = 0.976): 1116.61 ± 14 kg/m3 | speed of sound (303.15 K, m1 = 0.02076): 1515 ± 20 m/s | speed of sound (303.15 K, m1 = 0.04991): 1519.3 ± 20 m/s | speed of sound (303.15 K, m1 = 0.07047): 1522.4 ± 20 m/s | speed of sound (303.15 K, m1 = 0.1014): 1527.1 ± 20 m/s | speed of sound (303.15 K, m1 = 0.1983): 1541.6 ± 20 m/s | speed of sound (303.15 K, m1 = 0.2992): 1556.8 ± 20 m/s | speed of sound (303.15 K, m1 = 0.394): 1571 ± 20 m/s | speed of sound (303.15 K, m1 = 0.4957): 1586.2 ± 20 m/s | speed of sound (303.15 K, m1 = 0.5971): 1601.5 ± 20 m/s | speed of sound (303.15 K, m1 = 0.6947): 1616.1 ± 20 m/s | speed of sound (303.15 K, m1 = 0.7942): 1631 ± 20 m/s | speed of sound (303.15 K, m1 = 0.876): 1643.3 ± 20 m/s | speed of sound (303.15 K, m1 = 0.976): 1658.3 ± 20 m/s | mass density (303.15 K, m1 = 0.02076): 998.178 ± 14 kg/m3 | mass density (303.15 K, m1 = 0.04991): 1001.72 ± 14 kg/m3 | mass density (303.15 K, m1 = 0.07047): 1004.22 ± 14 kg/m3 | mass density (303.15 K, m1 = 0.1014): 1007.97 ± 14 kg/m3 | mass density (303.15 K, m1 = 0.1983): 1019.74 ± 14 kg/m3 | mass density (303.15 K, m1 = 0.2992): 1032.01 ± 14 kg/m3 | mass density (303.15 K, m1 = 0.394): 1043.53 ± 14 kg/m3 | mass density (303.15 K, m1 = 0.4957): 1055.88 ± 14 kg/m3 | mass density (303.15 K, m1 = 0.5971): 1068.21 ± 14 kg/m3 | mass density (303.15 K, m1 = 0.6947): 1080.06 ± 14 kg/m3 | mass density (303.15 K, m1 = 0.7942): 1092.15 ± 14 kg/m3 | mass density (303.15 K, m1 = 0.876): 1102.1 ± 14 kg/m3 | mass density (303.15 K, m1 = 0.976): 1114.24 ± 14 kg/m3 | speed of sound (308.15 K, m1 = 0.02076): 1522.8 ± 20 m/s | speed of sound (308.15 K, m1 = 0.04991): 1527.1 ± 20 m/s | speed of sound (308.15 K, m1 = 0.07047): 1530.2 ± 20 m/s | speed of sound (308.15 K, m1 = 0.1014): 1534.9 ± 20 m/s | speed of sound (308.15 K, m1 = 0.1983): 1549.4 ± 20 m/s | speed of sound (308.15 K, m1 = 0.2992): 1564.5 ± 20 m/s | speed of sound (308.15 K, m1 = 0.394): 1578.8 ± 20 m/s | speed of sound (308.15 K, m1 = 0.4957): 1594 ± 20 m/s | speed of sound (308.15 K, m1 = 0.5971): 1609.3 ± 20 m/s | speed of sound (308.15 K, m1 = 0.6947): 1623.9 ± 20 m/s | speed of sound (308.15 K, m1 = 0.7942): 1638.8 ± 20 m/s | speed of sound (308.15 K, m1 = 0.876): 1651.1 ± 20 m/s | speed of sound (308.15 K, m1 = 0.976): 1666.1 ± 20 m/s | mass density (308.15 K, m1 = 0.02076): 996.536 ± 14 kg/m3 | mass density (308.15 K, m1 = 0.04991): 1000.04 ± 14 kg/m3 | mass density (308.15 K, m1 = 0.07047): 1002.52 ± 14 kg/m3 | mass density (308.15 K, m1 = 0.1014): 1006.24 ± 14 kg/m3 | mass density (308.15 K, m1 = 0.1983): 1017.89 ± 14 kg/m3 | mass density (308.15 K, m1 = 0.2992): 1030.03 ± 14 kg/m3 | mass density (308.15 K, m1 = 0.394): 1041.44 ± 14 kg/m3 | mass density (308.15 K, m1 = 0.4957): 1053.67 ± 14 kg/m3 | mass density (308.15 K, m1 = 0.5971): 1065.88 ± 14 kg/m3 | mass density (308.15 K, m1 = 0.6947): 1077.61 ± 14 kg/m3 | mass density (308.15 K, m1 = 0.7942): 1089.58 ± 14 kg/m3 | mass density (308.15 K, m1 = 0.876): 1099.43 ± 14 kg/m3 | mass density (308.15 K, m1 = 0.976): 1111.45 ± 14 kg/m3
